Assay [1] deals with rat C6 glioma cells. The assay can be described thus: Growth of rat C6 glioma cells (observation and cell counting). Type of assay: cell-based. The note with it: 2.5, 5 and 10 μg/mL, 48 hours, cell density and cell counting vs control. The method, then: The cancer cell line, rat C6 glioma cells, was cultured in Dulbecco's modified Eagle's medium (DMEM; Gibco) supplemented with penicillin G, streptomycin sulphate, 0.5 mM of L-glutamine and 10% fetal bovine serum (FBS; Gibco) at 37° C., 5% CO2 and 95% relative humidity. For all experiments, the cells were seeded at a density of 3×10^5 per well in 6-well plates. After 24 hours, the cells were treated with different concentrations of the compound NBM-HD-1 (i.e., the compound of formula III depicted herein). After 48 hours, the cells were observed and counted. According to the results shown in FIG. 1, NBM-HD-1 can arrest the growth of rat C6 glioma cells. After the C6 glioma cells were incubated with 2.5 μg/mL (see FIG. 1(A)-b), 5 μg/mL (see FIG. 1(A)-c) and 10 μg/mL (see FIG. 1(A)-d) of NBM-HD-1 for 48 hours, the density of the cells reduced dramatically in comparison with that of control (see FIG. 1(A)-a).

The test system of another assay is p21. As to the kind of experiment: RT-PCR of p21 mRNA in MCF-7 cells. Type of assay: cell-based, human. The note with it: different doses, 24 hours. As for the experimental part: The cell cycle related to p21 mRNA expression was examined by RT-PCR. The total RNAs were isolated from the treated MCF-7 cells and used in the RT reaction. cDNA (1 μl) was used as a template to amplify p21 gene by PCR. GAPDH was used as an internal control. […] In this experiment, MCF-7 cells were treated with different doses of NBM-HD-1 for 24 hours.

For a further assay, the system named is cortical neurons. The assay can be described thus: Neurite outgrowth of cortical neurons from fetal rat neural stem cells. Type of assay: cell-based, Wistar rat. The note with it: 0.63 μg/mL, 6 days, vs DMSO control. As for the experimental part: The growth medium for the NSCs (neural stem cells) and cortical neurons was prepared by adding penicillin G, streptomycin and 0.5 mM of L-glutamine into a B-27 supplemented neurobasal medium (Gibco). The unborn fetus was taken out of the fetal sac in the abdominal cavity of a 17-day pregnant Wistar rat under anesthesia. The cerebral tissue was removed from the fetus and treated with 0.1% trypsin solution at 25° C. for three minutes. After washing with PBS solution 3 times, the cells were dissociated by up and down mixing. The resulting solution was passed through a 70 μm Nylon cell strainer (Falcon) in order to obtain the filtrate that contained cerebral cells. The filtrate was centrifuged at 1000 rpm for 10 minutes and the supernatant was aspirated. The resulting pellet was resuspended in the growth medium prepared as stated above. The resulting suspension contained NSCs.
The cells obtained from the suspension were cultivated in 6-well plates coated with 30 μg/ml of poly-D-lysine (Sigma) at the density of 75 cells/mm^2. The cells were cultured at 37° C., 5% CO2 and 95% relative humidity. The growth media contained 0.63 μg/mL of NBM-HD-1 and the growth media with 1 μl of DMSO was used as the control. […]
After cultivation for 6 days, live cells were observed by microscope. The lengths of the neurites of the neurons in 6 different fields were measured and averaged. […]

A further assay deals with MCF-7 cancer cells. As to the kind of experiment: Cell cycle / DNA of MCF-7 cells by FACScan cytometry. The class given is cell-based, human. The note with it: 72 hours. The method, then: (§1) 1×10^6 of rat C6 glioma cells were treated with various concentrations of NBM-HD-1 (0 μg/mL, 2.5 μg/mL, 5 μg/mL, and 10 μg/mL) for 72 hours. The treated cells were trysinized and collected. The cells were resuspended in 200 μL PBS and then fixed by adding 800 μL of cold 100% ethanol. The resulting cells were fixed overnight at −20°. The cell pellets were collected by centrifugation, resuspended in 1 mL of hypotonic buffer (0.5% Triton X-100 in PBS and 1 μg/mL RNase A), and incubated at 37° for 30 minutes. Then, 1 mL of PI solution (50 μg/mL) was added to the resulting cell pellets. The mixture was allowed to stand at 4° for 30 min. The DNA amounts of the cells were analyzed by FACScan Cytometry (Becton Dickinson) (see FIG. 2).
MCF-7 cancer cells (1×10^6) in a 100-mm dish were treated with various concentrations of NBM-HD-1 (0, 2.5, 5, and 10 μg/mL) or 4 mM sodium butyrate for 72 hours. The samples were prepared following the steps mentioned in [0063]. The DNA of the cells was then analyzed by FACScan cytometry (Becton Dickinson). […] The percentage of G0/G1 phase increased from 74.46 to 92.55 in a dose-dependent manner.

For assay [2], the system named is human giloblastoma DBTRG-05MG cancer cells. As to the kind of experiment: Growth and morphology of human giloblastoma DBTRG-05MG cancer cells. Type of assay: cell-based. The note with it: 72 hours. As for the experimental part: The human giloblastoma DBTRG-05MG cancer cells were cultured in RPMI medium 1640 (Gibco) supplemented with penicillin G, streptomycin sulphate, 0.5 mM of L-glutamine and 10% fetal bovine serum (FBS; Gibco), 100 mh/L sodium pyruvate (Gibco), and 1% NEAA (Gibco) at 37° C., 5% CO2 and 95% relative humidity. For these experiments, the cells were seeded at a density of 3×10^5 per well of 6-well plates. After 24 hours, the cells were treated with different concentrations of NBM-HD-1 and 4 mM sodium butyrate. The cells were observed and counted after 72 hours. […] In 05MG cells (FIG. 7(A)), after incubation with 2.5 μg/mL (FIG. 7(A)-b), 5 μg/mL (FIG. 7(A)-c) and 10 μg/mL (FIG. 7(A)-d) of NBM-HD-1 for 72 hours, the density of the cells reduced dramatically in comparison with that of the control group (FIG. 7(A)-a). The 05MG cells in the experimental group also changed to become longer than those in the control group.

In assay [3] the test system is rat C6 glioma cells. The assay can be described thus: Cell cycle / DNA content of C6 glioma cells by FACScan cytometry. Type of assay: cell-based. The note with it: 0, 2.5, 5, 10 μg/mL, 72 hours, PI staining. The method, then:
as §1

Structures are written as SMILES.

From patent US20090076130A1, “COMPOUNDS FOR THE INHIBITION OF HISTONE DEACETYLASE” (NATUREWISE BIOTECH & MEDICALS CORPORATION, priority 2007, published 2009) come the findings set out here.

With `COc1cc2c(c(OC)c1CCC(C)(C)O)C(=O)C[C@@H](c1ccc(OC)c(OC)c1C/C=C(\C)CCCC(C)(C)O)O2` [NBM-HD-1], the “growth of C6 glioma cells” value in the assay on rat C6 glioma cells [1] is given as “can inhibit the growth of C6 glioma cells in a dose-dependent manner”. For the same compound, the “p21 mRNA expression” value in the assay with p21 is on record as “induced the expression of p21 in a dose-dependent manner”. For the same compound, the “neurite outgrowth (length of the neurites)” value in the assay on cortical neurons is on record as “could promote the neurite outgrowth”. Also, the “cell cycle of MCF-7 cells” value in the assay on MCF-7 cancer cells (0, 2.5, 5, 10 μg/mL) is given as “arrested on the G0/G1 phase in a dose-dependent manner”. For the same compound, the “S and G2/M phases of the cells” value with MCF-7 cancer cells (MCF-7, 0, 2.5, 5, 10 μg/mL) was “significantly decreased both S and G2/M phases of the cells in a dose-dependent manner”. Besides, the “morphology of 05MG cancer cells” value in assay [2] (2.5, 5, 10 μg/mL) is recorded as “change the morphology of 05MG cancer cells”. The “growth of 05MG cancer cells” value in assay [2] (NBM-HD-1 2.5, 5, 10 μg/mL or 4 mM sodium butyrate) was “can inhibit the growth of 05MG cells in a dose-dependent manner”. Moreover, the “cell cycle of C6 glioma cells” value with rat C6 glioma cells [3] was “cell cycle arrest on the G0/G1 phase in a dose-dependent manner”.
